Data reported in patent US20250145589A1, “PYRIDINE DERIVATIVE AND USE THEREOF” (SICHUAN HUIYU PHARMACEUTICAL CO., LTD., priority 2021, published 2025).

What was measured:
[1] = tested on: pancreatic cancer MIA-Paca2 cell subcutaneous xenograft tumor; conditions: cited from earlier work
KRAS G12C mutation = conditions: at the cellular level; cited from earlier work
PI3Kδ = PI3Kδ (Homo sapiens (Human), UniProt O00329); assay: Inhibition of PI3Kδ efficacy assay (ADP-Glo kinase assay); assay type: biochemical; conditions: Table 1; read-out: PI3Kδ inhibitory activity (IC50)
Sequence of PI3Kδ (O00329 whole entry): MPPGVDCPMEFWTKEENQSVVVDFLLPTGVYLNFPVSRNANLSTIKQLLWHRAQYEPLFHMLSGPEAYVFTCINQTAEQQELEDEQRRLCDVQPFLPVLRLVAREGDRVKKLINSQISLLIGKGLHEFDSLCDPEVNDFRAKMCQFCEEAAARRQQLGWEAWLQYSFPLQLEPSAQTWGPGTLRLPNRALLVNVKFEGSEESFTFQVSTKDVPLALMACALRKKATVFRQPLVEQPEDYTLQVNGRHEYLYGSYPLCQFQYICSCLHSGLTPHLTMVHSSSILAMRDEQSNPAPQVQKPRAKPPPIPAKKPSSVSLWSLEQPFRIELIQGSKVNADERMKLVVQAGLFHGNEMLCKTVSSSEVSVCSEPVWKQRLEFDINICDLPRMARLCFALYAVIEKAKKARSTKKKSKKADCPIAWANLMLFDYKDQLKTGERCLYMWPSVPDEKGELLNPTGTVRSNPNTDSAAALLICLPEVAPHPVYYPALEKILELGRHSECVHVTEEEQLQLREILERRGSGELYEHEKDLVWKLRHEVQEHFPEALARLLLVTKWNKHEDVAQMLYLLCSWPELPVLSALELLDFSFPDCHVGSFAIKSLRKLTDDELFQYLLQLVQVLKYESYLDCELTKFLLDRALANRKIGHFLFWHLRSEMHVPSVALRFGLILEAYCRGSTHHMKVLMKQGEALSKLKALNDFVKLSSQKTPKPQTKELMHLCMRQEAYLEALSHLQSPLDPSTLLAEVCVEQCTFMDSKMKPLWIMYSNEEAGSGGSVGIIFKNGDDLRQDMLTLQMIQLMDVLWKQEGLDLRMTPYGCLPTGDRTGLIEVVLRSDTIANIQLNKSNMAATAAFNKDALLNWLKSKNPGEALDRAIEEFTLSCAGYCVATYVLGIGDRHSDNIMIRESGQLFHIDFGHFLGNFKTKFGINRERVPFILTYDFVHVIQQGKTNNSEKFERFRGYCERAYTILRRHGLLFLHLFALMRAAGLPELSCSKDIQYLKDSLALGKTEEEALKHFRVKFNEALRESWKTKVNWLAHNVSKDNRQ
Sequence of PI3Kδ (P27986 whole entry partner): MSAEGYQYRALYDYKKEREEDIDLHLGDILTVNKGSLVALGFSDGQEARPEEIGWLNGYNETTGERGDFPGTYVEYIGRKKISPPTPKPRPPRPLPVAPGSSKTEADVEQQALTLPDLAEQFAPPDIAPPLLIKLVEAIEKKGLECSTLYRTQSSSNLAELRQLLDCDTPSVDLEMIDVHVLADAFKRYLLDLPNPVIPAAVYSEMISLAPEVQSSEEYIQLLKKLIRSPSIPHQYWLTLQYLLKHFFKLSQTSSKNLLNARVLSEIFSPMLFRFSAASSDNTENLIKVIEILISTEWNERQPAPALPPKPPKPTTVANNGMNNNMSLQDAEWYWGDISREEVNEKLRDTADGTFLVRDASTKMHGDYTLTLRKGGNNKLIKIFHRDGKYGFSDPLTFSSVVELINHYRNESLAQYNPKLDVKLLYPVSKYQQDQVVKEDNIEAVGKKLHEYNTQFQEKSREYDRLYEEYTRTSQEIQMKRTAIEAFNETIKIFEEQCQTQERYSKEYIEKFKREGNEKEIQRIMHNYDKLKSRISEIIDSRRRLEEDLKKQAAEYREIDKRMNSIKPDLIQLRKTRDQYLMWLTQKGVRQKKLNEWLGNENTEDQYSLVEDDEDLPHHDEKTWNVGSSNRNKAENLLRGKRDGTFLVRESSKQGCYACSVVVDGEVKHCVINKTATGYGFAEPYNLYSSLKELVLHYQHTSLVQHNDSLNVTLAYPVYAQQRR
Summary of the method: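 Luminescent ADP-Glo readout of PI3Kδ: after a 60 min RT reaction with PI/ATP substrate, ATP depletion (40 min) and ADP detection (40 min) steps followed. Compounds tested as eight five-fold serial dilutions; inhibition rates fitted to log(inhibitor) vs. response, variable slope, for IC50.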

PI3Kα = PI3Kα (Homo sapiens (Human), UniProt P42336); assay: Inhibition of PI3Kα efficacy assay (ADP-Glo kinase assay); assay type: biochemical; conditions: Table 1; read-out: PI3Kα inhibitory activity (IC50)
Sequence of PI3Kα (P42336 whole entry): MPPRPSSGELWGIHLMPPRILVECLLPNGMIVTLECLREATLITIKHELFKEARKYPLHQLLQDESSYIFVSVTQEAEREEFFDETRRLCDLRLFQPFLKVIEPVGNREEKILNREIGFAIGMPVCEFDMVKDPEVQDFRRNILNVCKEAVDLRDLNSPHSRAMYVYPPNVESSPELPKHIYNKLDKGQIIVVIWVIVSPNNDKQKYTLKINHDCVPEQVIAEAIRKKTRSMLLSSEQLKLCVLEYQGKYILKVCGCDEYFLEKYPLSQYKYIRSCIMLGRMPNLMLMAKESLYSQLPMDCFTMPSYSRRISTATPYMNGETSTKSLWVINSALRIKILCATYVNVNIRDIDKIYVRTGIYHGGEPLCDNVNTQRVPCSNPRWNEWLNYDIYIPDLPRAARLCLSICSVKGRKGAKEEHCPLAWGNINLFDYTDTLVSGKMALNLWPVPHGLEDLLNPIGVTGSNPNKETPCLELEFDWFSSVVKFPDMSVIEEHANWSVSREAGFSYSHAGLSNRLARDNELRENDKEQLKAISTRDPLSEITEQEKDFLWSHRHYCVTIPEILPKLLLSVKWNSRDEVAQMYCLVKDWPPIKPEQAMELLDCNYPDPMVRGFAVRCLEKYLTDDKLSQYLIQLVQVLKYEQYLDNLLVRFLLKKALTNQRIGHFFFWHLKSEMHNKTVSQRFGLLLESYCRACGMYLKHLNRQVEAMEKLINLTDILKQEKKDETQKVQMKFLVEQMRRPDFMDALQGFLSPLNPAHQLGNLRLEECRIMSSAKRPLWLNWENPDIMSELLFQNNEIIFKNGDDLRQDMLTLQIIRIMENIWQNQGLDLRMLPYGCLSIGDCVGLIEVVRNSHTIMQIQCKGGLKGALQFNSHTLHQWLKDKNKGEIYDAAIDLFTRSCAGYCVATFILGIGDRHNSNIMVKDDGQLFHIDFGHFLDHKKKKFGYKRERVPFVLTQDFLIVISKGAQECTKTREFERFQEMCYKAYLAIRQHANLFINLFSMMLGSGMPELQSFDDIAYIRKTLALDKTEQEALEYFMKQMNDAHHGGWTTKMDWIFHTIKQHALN
Sequence of PI3Kα (P27986 whole entry partner): as the sequence (P27986 whole entry partner) above
Summary of the method: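 ADP-Glo luminescent detection of ADP from PI3Kα acting on PI substrate with ATP, 60 min at RT; compounds in 8-point five-fold serial dilution from 2 mM DMSO stock. IC50 from four-parameter variable-slope fit.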

[2] = tested on: MIA PaCa-2-AMGR drug-resistant cell line; assay: MIA PaCa-2-AMGR drug-resistant cell proliferation inhibitory activity test; assay type: cell-based; conditions: 72 h, MIA PaCa-2-AMGR drug-resistant cells, 3 days incubation, CellTiter-Glo
Description: Test Example 7: Generation of MIA PaCa-2-AMGR drug-resistant cell line
MIA PaCa-2 cells were seeded and cultured at 50 to 70% confluence in six-well plate with DMEM (10% FBS+2.5% horse serum) medium at 37° C. with 5% CO2. AMG510 was added for induction at three starting concentrations of 1 nM, 10 nM and 50 nM, and the medium containing the same concentration of AMG510 was replaced every 3 days. Cells were passaged once they reached confluence. After every two passages at a given concentration of drug, the concentration was increased in a 3-fold increment until final concentrations of 1 μM for AMG510 was achieved.
MIA PaCa-2-AMGR cells in logarithmic growth phase were collected and seeded into a clear-bottom 96-well plate at a density of 4×10^3 cells per well in 80 μL of medium, and then incubated overnight at 37° C. with 5% CO2. The compounds were serially diluted 5-fold in DMSO to obtain 8 concentrations, and then further diluted with DMEM (10% FBS+2.5% horse serum) cell culture medium to obtain the working solutions (5×), 20 μL of each working solution was added to the cell culture supernatant in each well, and the plate was further incubated for 3 days at 37° C. with 5% CO2. The plate was then equilibrated with CellTiter-Glo® reagent at room temperature (25° C.) for 10-30 minutes. After aspirating 50 μL of the medium, 50 μL of CellTiter-Glo® reagent was added. The cells were thoroughly mixed with the CellTiter-Glo® reagent using a microplate shaker for 2 minutes, and then incubated at room temperature for 10 minutes. The 96-well plate was placed in a multi-mode microplate reader to record the luminescence values (RLU).
The inhibitory rate was calculated using the following formula: […]
Data were analyzed using GraphPad Prism for IC50 values (Note: The negative control refers to the group without inhibitor) The data were presented m Table 9

KRAS^G12C-SOS1 = KRAS^G12C-SOS1 (Homo sapiens (Human), UniProt P01116, G12C); assay: HTRF KRAS G12C/SOS1 binding assay; conditions: Table 5
Sequence of KRAS^G12C-SOS1 (P01116-2 other isoform, or with tags, fused parts or gaps G12C): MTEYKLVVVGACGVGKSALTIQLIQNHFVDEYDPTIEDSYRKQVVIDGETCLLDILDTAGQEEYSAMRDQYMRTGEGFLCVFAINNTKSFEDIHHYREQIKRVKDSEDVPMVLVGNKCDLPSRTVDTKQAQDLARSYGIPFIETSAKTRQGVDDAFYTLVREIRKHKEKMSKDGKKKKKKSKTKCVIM
Description: Initially, a 2 mM stock solution of the test compound (dissolved in DMSO) was serially diluted in five-fold concentrations using DMSO to obtain eight working solutions 1 (200×). Subsequently, each of the eight working solutions 1 was further diluted in a 20-fold gradient by adding 5 μL into 95 μL of Diluent buffer, mixed completely with vortex mixer, resulting in eight working solutions 2 (10×). […] Subsequently, 5 μL of Anti-tag 1-Tb^3+ stock solution and 5 μL of Anti-tag2-XL665 were added to each well, mixed, and incubated at 4° C. for 3 hours. Remove the plate and read on an HTRF® compatible reader, with the excitation light wavelength set at 337 nm and readings recorded at 620 nm and 665 nm. The data results were presented as the ratio of the 665 nm signal value to the 620 nm signal value for each well, calculated as follows: […]. The inhibition rate was calculated using the following formula: […]
Data were analyzed using GraphPad Prism with log (inhibitor) vs. response-Variable Slope (four parameters) fitting calculations for IC50 values.

[3] = tested on: NCI-H358-AMGR drug-resistant cell line; assay: NCI-H358-AMGR drug-resistant cell proliferation inhibitory activity test; assay type: cell-based; conditions: 72 h; NCI-H358-AMGR drug-resistant cells, 3 days incubation, CellTiter-Glo
Summary of the method: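 Luminescent CellTiter-Glo read-out after 3-day, 37° C compound exposure (8 points, 5-fold series) of AMG510-resistant NCI-H358 cells plated at 4×10^3 per well.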

[4] = tested on: MIA PaCa-2 cells (KRAS G12C mutant); assay: MIA PaCa-2 cell anti-proliferation (CellTiter-Glo); assay type: cell-based; conditions: Homo sapiens, 72 h; MIA Paca-2 cells, 3 days, Table 7; read-out: MIA PaCa-2 (IC50)
Summary of the method: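 Viable-cell luminescence (CellTiter-Glo, ≥30 min at 25 °C) measured after a 3-day, 37 °C exposure to compounds at 9 points, 4-fold spaced, in DMEM containing 10% FBS plus 2.5% horse serum. IC50 derived versus no-inhibitor wells.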

Row | Compound | tumor growth inhibition [1] | cellular anti-proliferative activity (KRAS G12C mutation) | IC50 (PI3Kδ) [nM] | IC50 (PI3Kα) [nM] | IC50 [2] [nM] | IC50 (KRAS^G12C-SOS1) [nM] | IC50 [3] [nM] | IC50 [4] [nM]
1 | C=CC(=O)N1CCN(c2ncnc3c(F)c(-c4c(O)cccc4F)c(Cl)cc23)CC1 [ARS-1620] | effectively inhibit tumor growth | nM-level |  |  |  |  |  | 
2 | COc1ncc(-c2ccc3ncnc(N4CCN(C(=O)/C=C/C(C)=O)CC4)c3c2)cc1NS(=O)(=O)c1ccc(Cl)s1 [Example 38, (E)-5-chloro-N-(2-methoxy-5-(4-(4-(4-oxopent-2-enoyl)piperazin-1-yl)quinazolin-6-yl)pyridin-3-yl)thiophene-2-sulfonamide] |  |  | 14.7 | 1.5 | 216 | 807 | 51.1 | 59.8
